The structures appear in SMILES notation. Starred links: 1 amine or outer side, 2 acyl side, 3 side chain; linkers in the order of their positions; H or OH if unused. Non-standard residues stand in square brackets, D forms with d. Residues, ends and D or L forms follow the SMILES beside them. *: point of attachment. dAla(cis-4-NHCOPyz-cHex) = N[C@H](C[C@H]1CC[C@@H](NC(=O)c2cnccn2)CC1)C(=O)O; X2 = O=C(N[C@H]1CC[C@@H](C[C@H](N[*:1])C(=O)[*:2])CC1)c1cnccn1; X7 = O=C(N[C@H]1CC[C@H](C[C@@H](N[*:1])C(=O)[*:2])CC1)c1cccnc1; dPhe(4-Cl) = N[C@H](Cc1ccc(Cl)cc1)C(=O)O; Pyrimidin2yl(4,6-Me2) = Cc1cc(C)nc(*)n1; d2Nal = N[C@H](Cc1ccc2ccccc2c1)C(=O)O; Lys(iPr) = CC(C)NCCCC[C@H](N)C(=O)O; Lys(Me2) = CN(C)CCCC[C@H](N)C(=O)O; Orn(iPr) = CC(C)NCCC[C@H](N)C(=O)O; d3Pal = N[C@H](Cc1cccnc1)C(=O)O; Cit = NC(=O)NCCC[C@H](N)C(=O)O; NMeL = CN[C@@H](CC(C)C)C(=O)O; Nicotinoyl = O=C(c1cccnc1)*; Picolinoyl = O=C(c1ccccn1)*; Orn = NCCC[C@H](N)C(=O)O; Abu = CC[C@H](N)C(=O)O; Bz = O=C(c1ccccc1)*

The source of these data is patent publication US5763404A, “Methods for using LHRH antagonists with low histamine release” (priority 1995, dated 1998).

The test system of the data set is anaesthesized rats. The data set is described as follows: wheal test, intradermal injection. The format is in vivo, rat. Further details: Wheal (wheal response): unit not given here. To be noted: for Wheal Area / Wheal: 10 ug peptide intradermally; for Wheal: Table I; for Wheal (wheal response): Table XIV and text, unit not given. The method, then:
The antiovulatory activity, AOA, in rats was determined as described by Humphries et al. (12). Antiovulation assays were performed by counting, on estrus, the number of ova shed by 4-day cycling rats after a single sc injection of the LH-RH analogue in corn oil was administered between 12 and 12:30 p.m. on […]. The control rats received 0.3 mL of the vehicle. The wheal test was performed by intradermally injecting 10 ug of peptide in 100 ul of saline into anaesthesized rats, measuring the ideally circular wheal response and calculating the area. The in vitro histamine release test was done as described by Karten et al. (4). A suspension of rat mast cells was added to increasing concentrations of peptide and the mixture was incubated for a few minutes followed by centrifugation to collect the histamine in the supernatant. A PIPES (piperazine-N,N'-bis[2-ethanesulfonic acid]) medium buffered at pH 7.4 containing NaCl 119 mM, KCl 5 mM, PIPES 25 mM, NaOH 40 mM, glucose 5.6 mM, CaCl2 1 mM, and 0.1% bovine serum albumin was used. This was designated as PIPES AC. Peptides were dissolved in double distilled H2 O at a concentration of 2 mg/ml and stored at -20° C. They were thawed just prior to testing, diluted in PIPES AC and prewarmed for five minutes at 37° C. Peptides studied were stable to heating at 56° C. for two hours, and to freezing and thawing.

For `CC(=O)N[C@H](Cc1ccc2ccccc2c1)C(=O)N[C@H](Cc1ccc(Cl)cc1)C(=O)N[C@H](Cc1cccnc1)C(=O)N[C@@H](CO)C(=O)N[C@@H](CCCCNC(=O)c1ccccn1)C(=O)N[C@H](C[C@H]1CC[C@@H](NC(=O)c2cnccn2)CC1)C(=O)N[C@@H](CC(C)C)C(=O)N[C@@H](CCCNC(=N)N)C(=O)N1CCC[C@H]1C(=O)N[C@H](C)C(N)=O` [compound 26347] (Ac-[d2Nal][dPhe(4-Cl)][d3Pal]SK(Picolinoyl)[dAla(cis-4-NHCOPyz-cHex)]LRP[dA]-NH2), the “Wheal Area” value was 119.6 ± 8.5 mm^2 /10 μg.
`CC(=O)N[C@H](Cc1ccc2ccccc2c1)C(=O)N[C@H](Cc1ccc(Cl)cc1)C(=O)N[C@H](Cc1cccnc1)C(=O)N[C@@H](CO)C(=O)N[C@@H](Cc1c[nH]cn1)C(=O)N[C@H](CCCCNC(=O)c1cccnc1)C(=O)N[C@@H](CC(C)C)C(=O)N[C@@H](CCCCNC(=O)c1cccnc1)C(=O)N1CCC[C@H]1C(=O)N[C@H](C)C(N)=O` [compound 24745] (Ac-[d2Nal][dPhe(4-Cl)][d3Pal]SH[dK](Nicotinoyl)LK(Nicotinoyl)P[dA]-NH2) came in with a Wheal of 136.3 ± 6.8 mm^2 /10.
`CC(=O)N[C@H](Cc1ccc2ccccc2c1)C(=O)N[C@H](Cc1ccc(Cl)cc1)C(=O)N[C@H](Cc1cccnc1)C(=O)N[C@@H](CO)C(=O)N[C@@H](CCCCNC(=O)c1cccnc1)C(=O)N[C@H](Cc1c[nH]cn1)C(=O)N[C@@H](CC(C)C)C(=O)N[C@@H](CCCNC(=N)N)C(=O)N1CCC[C@H]1C(=O)N[C@H](C)C(N)=O` [compound 24544] (Ac-[d2Nal][dPhe(4-Cl)][d3Pal]SK(Nicotinoyl)[dH]LRP[dA]-NH2) showed a Wheal of 146.7 ± 3.6 mm^2 /10.
As for `CC(=O)N[C@H](Cc1ccc2ccccc2c1)C(=O)N[C@H](Cc1ccc(Cl)cc1)C(=O)N[C@H](Cc1cccnc1)C(=O)N[C@@H](CO)C(=O)N[C@@H](C[C@H]1CC[C@@H](NC(=O)c2cnccn2)CC1)C(=O)N[C@H](CCCCNC(=O)c1ccccn1)C(=O)N[C@@H](CC(C)C)C(=O)N[C@@H](CCCCNC(C)C)C(=O)N1CCC[C@H]1C(=O)N[C@H](C)C(N)=O` [compound 26180] (Ac-[d2Nal][dPhe(4-Cl)][d3Pal]S[X2][dK](Picolinoyl)L[Lys(iPr)]P[dA]-NH2), the “Wheal Area” value was 99.5 ± 4.5 mm^2 /10 μg and the “Wheal (wheal response)” value stood at 99.5 ± 4.5.
Turning to `CC(=O)N[C@H](Cc1ccc2ccccc2c1)C(=O)N[C@H](Cc1ccc(Cl)cc1)C(=O)N[C@H](Cc1cccnc1)C(=O)N[C@@H](CO)C(=O)N[C@@H](CCCCNC(=O)c1ccccn1)C(=O)N[C@H](C[C@H]1CC[C@@H](NC(=O)c2cnccn2)CC1)C(=O)N[C@@H](CC(C)C)C(=O)N[C@@H](CCCNC(C)C)C(=O)N1CCC[C@H]1C(=O)N[C@H](C)C(N)=O` [compound 26181] (Ac-[d2Nal][dPhe(4-Cl)][d3Pal]SK(Picolinoyl)[dAla(cis-4-NHCOPyz-cHex)]L[Orn(iPr)]P[dA]-NH2), the “Wheal (wheal response)” value was 101.6 ± 2.2.
In the case of `CC(=O)N[C@H](Cc1ccc2ccccc2c1)C(=O)N[C@H](Cc1ccc(Cl)cc1)C(=O)N[C@H](Cc1cccnc1)C(=O)N[C@@H](CO)C(=O)N[C@@H](CCCCNC(=O)c1ccccn1)C(=O)N[C@H](CCCCNC(=O)c1cccnc1)C(=O)N[C@@H](CC(C)C)C(=O)N[C@@H](CCCCNC(C)C)C(=O)N1CCC[C@H]1C(=O)N[C@H](C)C(N)=O` [compound 25510] (Ac-[d2Nal][dPhe(4-Cl)][d3Pal]SK(Picolinoyl)[dK](Nicotinoyl)L[Lys(iPr)]P[dA]-NH2), the Wheal was 116 ± 3.3 mm^2 /10.
On to `CC(=O)N[C@H](Cc1ccc2ccccc2c1)C(=O)N[C@H](Cc1ccc(Cl)cc1)C(=O)N[C@H](Cc1cccnc1)C(=O)N[C@@H](CO)C(=O)N[C@@H](Cc1ccc(O)cc1)C(=O)N[C@H](CCCCNC(=O)c1cccnc1)C(=O)N[C@@H](CC(C)C)C(=O)N[C@@H](CCCCN(C)C)C(=O)N1CCC[C@H]1C(=O)N[C@H](C)C(N)=O` [compound 24443] (Ac-[d2Nal][dPhe(4-Cl)][d3Pal]SY[dK](Nicotinoyl)L[Lys(Me2)]P[dA]-NH2), for which the Wheal came to 122.7 mm^2 /10.
For `CC(=O)N[C@H](Cc1ccc2ccccc2c1)C(=O)N[C@H](Cc1ccc(Cl)cc1)C(=O)N[C@H](Cc1ccc(O)cc1)C(=O)N[C@@H](CO)C(=O)N[C@@H](CCCNC(=N)N)C(=O)N[C@H](CCCCNC(=O)c1cccnc1)C(=O)N[C@@H](CC(C)C)C(=O)N[C@@H](CCCNC(=N)N)C(=O)N1CCC[C@H]1C(=O)N[C@H](C)C(N)=O` [compound 24446] (Ac-[d2Nal][dPhe(4-Cl)][dY]SR[dK](Nicotinoyl)LRP[dA]-NH2), the Wheal is listed as 113.2 mm^2 /10.
As for `CC(=O)N[C@H](Cc1ccc2ccccc2c1)C(=O)N[C@H](Cc1ccc(Cl)cc1)C(=O)N[C@H](Cc1cccnc1)C(=O)N[C@@H](CO)C(=O)N[C@@H](CCCCNC(=O)c1cccnc1)C(=O)N[C@H](C[C@H]1CC[C@H](NC(=O)c2cccnc2)CC1)C(=O)N[C@@H](CC(C)C)C(=O)N[C@@H](CCCCNC(C)C)C(=O)N1CCC[C@H]1C(=O)N[C@H](C)C(N)=O` [compound 25647] (Ac-[d2Nal][dPhe(4-Cl)][d3Pal]SK(Nicotinoyl)[X7]L[Lys(iPr)]P[dA]-NH2), the Wheal worked out at 119.5 ± 3.2 mm^2 /10.
As for `CC(=O)N[C@H](Cc1ccc2ccccc2c1)C(=O)N[C@H](Cc1ccc(Cl)cc1)C(=O)N[C@H](Cc1cccnc1)C(=O)N[C@@H](CO)C(=O)N[C@@H](CCCCNC(=O)c1cccnc1)C(=O)N[C@H](CCCCNC(=O)c1cccnc1)C(=O)N(C)[C@@H](CC(C)C)C(=O)N[C@@H](CCCCNC(C)C)C(=O)N1CCC[C@H]1C(=O)N[C@H](C)C(N)=O` [compound 26345] (Ac-[d2Nal][dPhe(4-Cl)][d3Pal]SK(Nicotinoyl)[dK](Nicotinoyl)[NMeL][Lys(iPr)]P[dA]-NH2), the “Wheal Area” value was 110.5 ± 11.4 mm^2 /10 μg.
Compound `CC(=O)N[C@H](Cc1ccc2ccccc2c1)C(=O)N[C@H](Cc1ccc(Cl)cc1)C(=O)N[C@H](Cc1cccnc1)C(=O)N[C@@H](CO)C(=O)N[C@@H](Cc1ccc(O)cc1)C(=O)N[C@H](CCCCNC(=O)c1cccnc1)C(=O)N[C@@H](CC(C)C)C(=O)N[C@@H](CCCCN)C(=O)N1CCC[C@H]1C(=O)N[C@H](C)C(N)=O` [compound 24825] (Ac-[d2Nal][dPhe(4-Cl)][d3Pal]SY[dK](Nicotinoyl)LKP[dA]-NH2) registered a Wheal of 119.5 ± 3.2 mm^2 /10.
For the compound `CC[C@H](NC(=O)[C@@H](CCCCNC(=O)c1ccccn1)NC(=O)[C@H](CCCNC(N)=O)NC(=O)[C@H](CO)NC(=O)[C@@H](Cc1cccnc1)NC(=O)[C@@H](Cc1ccc(Cl)cc1)NC(=O)[C@@H](Cc1ccc2ccccc2c1)NC(C)=O)C(=O)N[C@@H](CCCCNC(C)C)C(=O)N1CCC[C@H]1C(=O)N[C@H](C)C(N)=O` [compound 26382] (Ac-[d2Nal][dPhe(4-Cl)][d3Pal]S[Cit][dK](Picolinoyl)[Abu][Lys(iPr)]P[dA]-NH2), the “Wheal Area” value is on record as 89.5 ± 5.5 mm^2 /10 μg.
With `CC(=O)N[C@H](Cc1ccc2ccccc2c1)C(=O)N[C@H](Cc1ccc(Cl)cc1)C(=O)N[C@H](Cc1cccnc1)C(=O)N[C@@H](CO)C(=O)N[C@@H](CCCCNC(=O)c1cccnc1)C(=O)N[C@H](CCCCNC(=O)c1ccccc1)C(=O)N[C@@H](CC(C)C)C(=O)N[C@@H](CCCCNC(C)C)C(=O)N1CCC[C@H]1C(=O)N[C@H](C)C(N)=O` [compound 25332] (Ac-[d2Nal][dPhe(4-Cl)][d3Pal]SK(Nicotinoyl)[dK](Bz)L[Lys(iPr)]P[dA]-NH2), the Wheal is on record as 119.6 mm^2 /10.
As to `CC(=O)N[C@H](Cc1ccc2ccccc2c1)C(=O)N[C@H](Cc1ccc(Cl)cc1)C(=O)N[C@H](Cc1cccnc1)C(=O)N[C@@H](CO)C(=O)N[C@@H](CCCCNC(=O)c1cccnc1)C(=O)N[C@H](CCCCNC(=O)c1cccnc1)C(=O)N[C@@H](CC(C)C)C(=O)N[C@@H](CCCNc1nc(C)cc(C)n1)C(=O)N1CCC[C@H]1C(=O)N[C@H](C)C(N)=O` [compound 25143] (Ac-[d2Nal][dPhe(4-Cl)][d3Pal]SK(Nicotinoyl)[dK](Nicotinoyl)L[Orn](Pyrimidin2yl(4,6-Me2))P[dA]-NH2), the Wheal is recorded as 113.6 mm^2 /10.
In turn, `CC(=O)N[C@H](Cc1ccc2ccccc2c1)C(=O)N[C@H](Cc1ccc(Cl)cc1)C(=O)N[C@H](Cc1cccnc1)C(=O)N[C@@H](CO)C(=O)N[C@@H](CCCCNC(=O)c1cccnc1)C(=O)N[C@@H](CCCCNC(=O)c1cccnc1)C(=O)N[C@@H](CC(C)C)C(=O)N[C@@H](CCCCNC(C)C)C(=O)N1CCC[C@H]1C(=O)N[C@H](C)C(N)=O` [compound 24934] (Ac-[d2Nal][dPhe(4-Cl)][d3Pal]SK(Nicotinoyl)K(Nicotinoyl)L[Lys(iPr)]P[dA]-NH2) gave a Wheal of 123 ± 5.9 mm^2 /10.
Regarding `CC(=O)N[C@H](Cc1ccc2ccccc2c1)C(=O)N[C@H](Cc1ccc(Cl)cc1)C(=O)N[C@H](Cc1c[nH]c2ccccc12)C(=O)N[C@@H](CO)C(=O)N[C@@H](CCCCNC(=O)c1ccccn1)C(=O)N[C@H](CCCCNC(=O)c1ccccn1)C(=O)N[C@@H](CC(C)C)C(=O)N[C@@H](CCCCNC(C)C)C(=O)N1CCC[C@H]1C(=O)N[C@H](C)C(N)=O` [compound 26177] (Ac-[d2Nal][dPhe(4-Cl)][dW]SK(Picolinoyl)[dK](Picolinoyl)L[Lys(iPr)]P[dA]-NH2), the “Wheal Area” value turned out to be 71.0 ± 4.3 mm^2 /10 μg.
